Like-named read-outs stand apart in the source and are kept apart here.
Key:
[1] = Acute toxicity (oral, mice, 7 days observation); type: in vivo; details: mouse, in vivo
Procedure: (§1) Next, several tests for determining the pharmacological properties, in that acute toxicity, anti-pyretic activity, analgesic activity and anti-inflammatory activity of the present 1,1,3,5-substituted biuret compounds of the formula (1) were conducted and the test results are shown in Table (2). In the tests, each compounds to be tested was used as a suspension in 0.25% carboxymethylcellulose solution. Methods for testing are explained as follows:
(§2) The ddy strain of male mice (body weight, 20-25 g) were used as test animals. The mice were fasted overnight and the compound to be tested was administered orally. […] The lethal dose (mg/kg, body weight) of the test compound was determined in connection with the death number of mice/the number of mice tested. In Table 2, the values indicated with Δ marks are 50% lethal dose, LD50 (mg/kg, body weight).

ddy strain of male mice [2] = experiment: Analgesic activity, acetic acid-induced stretching method; type: in vivo, mouse (ddy); details: for ED50: oral, Δ mark, range in parentheses
Procedure: as §1
According to the method reported by Koster et al., [Fed. Proc., Vol. 18, pp. 412 (1959)], the ddy strain of male mice (body weight, 20-25 g) were used as test animals. The mice were fasted overnight, 100 mg/kg body weight of the test compound was administered orally, then 1 hour after the administration, 0.2 ml of 0.7% acetic acid solution was injected intraperitoneally. The acetic acid-induced stretching symptom of mouse was observed. Analgesic activity of the test compound was calculated as the inhibitory ratio (%). In Table 2, the values in parentheses show the data obtained from the test by using the dosage other than 100 mg/kg body weight. Further, the values indicated with Δ marks show 50% effective dose, ED50 (mg/kg body weight).

ddy strain of male mice [3] = experiment: Analgesic activity, Haffner method (morphine threshold dose, clamp); type: in vivo, mouse (ddy); details: for ED50: oral, Δ mark, range in parentheses; for inhibition in vivo at 200 mg/kg: 200 mg/kg oral; for Analgesic activity, Haffner method, inhibitory ratio / inhibition in vivo at 100 mg/kg: 100 mg/kg oral, 45 minutes before morphine hydrochloride
Procedure: as §1
According to the modified method reported by Fujimura et. al., [Bulletin of the Institute for Chemical Research, Kyoto University, No. 25, pp. 36 (1951)], the ddy strain of male mice (body weight, 20-25 g) were used as test animals. The mice were fasted overnight, 100 mg/kg body weight of the test compound was administered orally, then 45 minutes after the administration, the threshold amount (1.5-2.5 mg/kg body weight) of morphine hydrochloride was injected subcutaneously. Then 1-hour pain reaction of the mouse caused by a clamp was observed. Analgesic activity of the test compound was calculated as the inhibitory ratio (%). In Table 2, the values in parentheses show the data obtained from the test by using the dosage other than 100 mg/kg body weight. Further, the values indicated with Δ marks show 50% effective dose, ED50 (mg/kg body weight).

[4] = test system: Wistar strain of male rats; experiment: Anti-pyretic activity (dry-yeast-induced fever); type: in vivo, rat (Wistar); details: oral (dose not given), up to 4 hours after administration
Procedure: as §1
According to the method reported by Tanabe [Folia Pharmacologia Japonica, Vol. 73, pp. 803 (1977)], the Wistar strain of male rats (150-180 g, body weight) were used as test animals. The rats were fasted overnight, and 1 ml/100 g (body weight) of 10% dry-yeast suspension were subcutaneously injected on the back of the rats. Five hours after the injection, the test compound was administered orally, then the body temperature of the rat was measured at time sequences. Anti-pyretic activity of the test compound was determined as the FI (febril index) by integrating pyrogenetic curve up to 4 hours after the administration of the test compound with time, and indicated as inhibitory ratio (%) shown by the following formula, [formula]

[5] = test system: Wistar strain of male rats; experiment: Anti-inflammatory activity (acute carrageenin-induced inflammatory test, hindpaw); type: in vivo, rat (Wistar)
Procedure: as §1
According to the method of acute carrageenin-induced inflammatory test [Folia Pharmacologia Japonica, Vol. 56, pp. 575 (1960)], the Wistar strain of male rats (body weight, 150-180 g) were used as test animals. The rats were fasted overnight, 100 mg/kg body weight of the test compound was administered orally, then 1 hour after the administration, 0.1 ml of 1% carrageenin solution, as the inflammation inducing agent, was injected subcutaneously to the hindpaw of the rat and the volume of the hindpaw was measured at time sequences, Anti-inflammatory activity of the test compound was calculated as inflammation inhibitory ratio (%) at 3 hours after the injection of inflammation inducing agent.

ddy strain of male mice [6] = experiment: Acute toxicity (oral, mice, 7 days observation); type: in vivo
Procedure: as §1, §2

[7] = oral, male ddy mice, 7 days observation, Δ mark, read-out: 50% lethal dose, LD50
[8] = Rattus norvegicus, po, 3 h, read-out: Anti-inflammatory activity, inflammation inhibitory ratio
[9] = Rattus norvegicus, 100 mg/kg oral, 3 hours after carrageenin, read-out: Anti-inflammatory activity, inflammation inhibitory ratio
[10] = Mus musculus, po, read-out: Analgesic activity, acetic acid-induced stretching method, inhibitory ratio
[11] = Mus musculus, read-out: Analgesic activity, Haffner method, inhibitory ratio
[12] = 100 mg/kg oral, 1 hour before acetic acid
[13] = 100 mg/kg oral, 3 hours after carrageenin

Row | Compound | Anti-pyretic activity, inhibitory ratio (febril index) [4] [%] | inhibition in vivo at 100 mg/kg [5, 8] [%] | Acute toxicity: death number of mice/number of mice tested (ddy strain of male mice [6]; 1000 mg/kg oral) | Acute toxicity: death number of mice/number of mice tested (ddy strain of male mice [6]; 2000 mg/kg oral) | inhibition in vivo at 100 mg/kg (ddy strain of male mice [2]; [10]) [%] | inhibition in vivo at 100 mg/kg (ddy strain of male mice [3]; [11]) [%] | also measured
1 | CNC(=O)NC(=O)N(C)c1ccccc1 [Compound No. 49, 1,5-dimethyl-1-phenylbiuret] | 84 | 32 |  |  |  |  | LD50 at 168 h [1, 7]: 1600 mg/kg; ED50 (ddy strain of male mice [2]; Mus musculus): 34 mg/kg; ED50 (ddy strain of male mice [3]; Mus musculus): 86 mg/kg
2 | CCCNC(=O)N(C)C(=O)N(C)c1ccccc1 [Compound No. 55, 1,3-Dimethyl-1-phenyl-5-n-propylbiuret] | 80 |  | 1/4 |  |  |  | Acute toxicity: death number of mice/number of mice tested (ddy strain of male mice [6]; 1500 mg/kg oral): 4/4; ED50 (ddy strain of male mice [2]; Mus musculus): 80 mg/kg; ED50 (ddy strain of male mice [3]; Mus musculus): 90 mg/kg; inhibition in vivo at 100 mg/kg [5, 9]: 73%
3 | CCN(CC)C(=O)N(C)C(=O)Nc1ccccc1 [Compound No. 57, 1,1-diethyl-3-methyl-5-phenylbiuret] | 19 | 23 |  | 1/4 | 37.5 |  | inhibition in vivo at 200 mg/kg (ddy strain of male mice [3]; [11]): 50%
4 | CN(C)C(=O)N(C)C(=O)Nc1c(F)c(F)cc(F)c1F [compound 9, 1,1,3-Trimethyl-5-(2,3,5,6-tetrafluorophenyl)biuret] | 33 |  | 4/4 |  |  |  | Acute toxicity: death number of mice/number of mice tested (ddy strain of male mice [6]; 500 mg/kg oral): 0/4; Analgesic activity, acetic acid-induced stretching method, inhibitory ratio (ddy strain of male mice [2]; [12]): 87.5%; Analgesic activity, Haffner method, inhibitory ratio (ddy strain of male mice [3]): 50%; Anti-inflammatory activity, inflammation inhibitory ratio [5, 13]: 24%
5 | CN(C)C(=O)N(C)C(=O)Nc1cccc(C(F)(F)F)c1 [compound 18, 1,1,3-Trimethyl-5-(3-trifluoromethylphenyl)biuret] | 62 |  | 0/4 | 4/4 |  |  | Analgesic activity, acetic acid-induced stretching method, inhibitory ratio (ddy strain of male mice [2]; [12]): 37.5%; ED50 (ddy strain of male mice [3]; Mus musculus): 64 mg/kg; Anti-inflammatory activity, inflammation inhibitory ratio ([5]; 100 mg/kg oral, (2 hours)): 32%
6 | Cc1cccc(NC(=O)N(C)C(=O)N(C)C)c1 [compound 27, 1,1,3-Trimethyl-5-(3-methylphenyl)biuret] | 31 |  |  | 2/4 |  |  | Analgesic activity, acetic acid-induced stretching method, inhibitory ratio (ddy strain of male mice [2]; [12]): 75%; Analgesic activity, Haffner method, inhibitory ratio (ddy strain of male mice [3]): 37.5%; Anti-inflammatory activity, inflammation inhibitory ratio [5, 13]: 28%
7 | CCN(C(=O)Nc1ccccc1)C(=O)N(C)C [compound 36, 1,1-Dimethyl-3-ethyl-5-phenylbiuret] | 12 |  | 0/4 | 3/4 |  | 62.5 | Analgesic activity, acetic acid-induced stretching method, inhibitory ratio (ddy strain of male mice [2]; [12]): 62.5%; Anti-inflammatory activity, inflammation inhibitory ratio [5, 13]: 23%
8 | CCCCN(C(=O)Nc1ccccc1)C(=O)N(C)C [compound 38, 1,1-Dimethyl-3-n-butyl-5-phenylbiuret] | 18 |  | 0/4 | 3/4 |  |  | Analgesic activity, acetic acid-induced stretching method, inhibitory ratio (ddy strain of male mice [2]; [12]): 37.5%; inhibition in vivo at 200 mg/kg (ddy strain of male mice [3]; [11]): 37.5%; inhibition in vivo at 100 mg/kg [5, 9]: 31%
9 | CNC(=O)N(C(=O)N(C)C)c1ccccc1 [compound 39, 1,1,5-Trimethyl-3-phenylbiuret] |  |  |  |  |  |  | LD50 at 168 h [1, 7]: 93 mg/kg; inhibition in vivo at 50 mg/kg (ddy strain of male mice [2]; [10]): 25%; inhibition in vivo at 50 mg/kg (ddy strain of male mice [3]; Mus musculus, 50 mg/kg oral, read-out: Analgesic activity, Haffner method, inhibitory ratio): 25%; inhibition in vivo at 25 mg/kg [5, 8]: 33%
10 | CN(C)C(=O)N(C(=O)NC1CCCCC1)c1ccccc1 [compound 41, 1,1-Dimethyl-3-phenyl-5-cyclohexylbiuret] |  |  |  |  |  | 62.5 | LD50 at 168 h [1, 7]: 1280 mg/kg; inhibition in vivo at 200 mg/kg (ddy strain of male mice [2]; [10]): 50%
11 | CCN(C)C(=O)NC(=O)NCc1ccccc1 [compound 44, 1-Methyl-1-ethyl-5-benzylbiuret] |  | 47 |  |  |  |  | LD50 at 168 h [1, 7]: 1400 mg/kg; inhibition in vivo at 200 mg/kg (ddy strain of male mice [2]; Mus musculus, 200 mg/kg oral, read-out: Analgesic activity, acetic acid-induced stretching method, inhibitory ratio): 87.5%
12 | CCCN(C)C(=O)N(C)C(=O)Nc1ccccc1 [compound 46, 1,3-Dimethyl-1-n-propyl-5-phenylbiuret] | 44 |  | 1/4 | 4/4 |  |  | Analgesic activity, acetic acid-induced stretching method, inhibitory ratio (ddy strain of male mice [2]; 60 mg/kg oral): 75%; Analgesic activity, Haffner method, inhibitory ratio (ddy strain of male mice [3]): 37.5%; Anti-inflammatory activity, inflammation inhibitory ratio ([5]; 100 mg/kg oral, (2 hours)): 26%
13 | CCCNC(=O)NC(=O)N(C)c1ccccc1 [compound 51, 1-Methyl-1-phenyl-5-n-propylbiuret] | 164 | 60 | 2/4 |  | 37.5 | 87.5 | Acute toxicity: death number of mice/number of mice tested (ddy strain of male mice [6]; 500 mg/kg oral): 1/4
14 | CCCCNC(=O)NC(=O)N(C)c1ccccc1 [compound 52, 1-Methyl-1-phenyl-5-n-butylbiuret] | 104 |  | 0/4 | 3/4 |  | 50 | inhibition in vivo at 100 mg/kg (ddy strain of male mice [2]; Mus musculus, 100 mg/kg oral, 1 hour before acetic acid, read-out: Analgesic activity, acetic acid-induced stretching method, inhibitory ratio): 62.5%; inhibition in vivo at 100 mg/kg [5, 9]: 48%
15 | CCN(C(=O)N(C)C(=O)NC)c1ccc(Cl)cc1 [compound 60, 1-Ethyl-1-(4-chlorophenyl)-3,5-dimethylbiuret] | 88 | 33 | 1/4 | 3/4 | 75 | 50 | 
16 | CCN(C(=O)N(C)C(=O)NC)c1ccc(C)cc1 [compound 62] | 18 |  |  |  | 62.5 | 37.5 | LD50 at 168 h ([1]; po): 1480 mg/kg
17 | CCCN(C(=O)N(C)C(=O)NC)c1ccccc1 [compound 63, 1-n-Propyl-1-phenyl-3,5-dimethylbiuret] | 76 |  | 3/4 | 4/4 | 50 | 50 | inhibition in vivo at 100 mg/kg [5, 9]: 58%
18 | CCCCN(C(=O)N(C)C(=O)NC)c1ccccc1 [compound 64, 1-n-Butyl-1-phenyl-3,5-dimethylbiuret] | 50 | 43 | 2/4 |  | 25 | 37.5 | Acute toxicity: death number of mice/number of mice tested (ddy strain of male mice [6]; 500 mg/kg oral): 1/4
19 | CN(C(=O)Nc1ccccc1)C(=O)N1CCCCC1 [compound 70, 1,1-Pentamethylene-3-methyl-5-phenylbiuret] |  |  |  |  | 62.5 | 37.5 | LD50 at 168 h [1, 7]: 515 mg/kg

Reference: patent US4371544A, “Pharmaceutical composition containing 1,1,3,5-substituted biuret compound” (Taiho Pharmaceutical Company Limited, priority 1979, dated 1983)
